The data set has as its system human PBMCs. The data set is described as follows: Human PBMC cytokine response assay (IFN-γ and IFN-α in cell-free medium by ELISA), with or without cPLGA.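 On IFN-α (pg/ml) mean: 20 µg/mL compound for 24 hours.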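 On IFN-γ (pg/ml) mean: 20 µg/mL compound for 24 hours.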 It counts as cell-based. The following applies: for IFN-α induction, in words: used alone; for IFN-a (pg/ml) mean / IFN-g (pg/ml) mean: mean of donors 28185-28188; for IFN-a (pg/ml) ×2: mean ×2; for IFN-g (pg/ml) ×4: mean ×4. (In general: In an ELISA, binding on a coated surface is turned into a signal by an enzyme label.)

Setting [1] is: Table 26, mean of donors 28313-28316.
The mark [2] stands for this setting: Example 59, 0.8 ug/ml, donor 48.
[3] abbreviates: Example 59, 0.8 ug/ml, donor 177.
Where [4] appears, read: Example 59, 0.8 ug/ml, donor 272.
Setting [5] is: Example 59, 0.8 ug/ml, donor 273.
Where [6] appears, read: Example 59, 0.8 ug/ml, mean of four donors.
[7] abbreviates: Example 59, 4 ug/ml, mean of four donors.
Where [8] appears, read: Example 59, 20 ug/ml, donor 177.
[9] abbreviates: Example 59, 20 ug/ml, donor 272.
The mark [10] stands for this setting: Example 59, 20 ug/ml, donor 273.
Setting [11] is: Example 59, 20 ug/ml, mean of four donors.
Setting [12] is: donor 28066, 20 ug/ml, 24 h, + PLGA = premixed with 100 μg/ml cPLGA.
Where [13] appears, read: donor 28067, 20 ug/ml, 24 h, + PLGA = premixed with 100 μg/ml cPLGA.
Setting [14] is: donor 28068, 20 ug/ml, 24 h, + PLGA = premixed with 100 μg/ml cPLGA.
Setting [15] is: mean of donors 28065-28068, 20 ug/ml, 24 h, + PLGA = premixed with 100 μg/ml cPLGA.
Where [16] appears, read: Table 24, mean of donors 28234-28237.

No end group written: not given here.

For the substance “(5′-TCGACGT-3′-HEG)x-Ficoll400 (X range = 150-250, ave. 185) See example 49 (not fully specified (C-terminus); cysteine pairing not given here; also: about 185 copies attached to Ficoll400) [Compound C-137]”, the “IFN-α induction, in words” value is “significant stimulation of IFN-α”. Under “Table 26, donor 28313”, the IFN-a is 3612 pg/mL and the IFN-g came out at 1 pg/mL. Moreover, for the setting “Table 26, donor 28314”, the IFN-a was determined as 5468 pg/mL and the IFN-g came to 22 pg/mL. Where the note is “Table 26, donor 28315”, the IFN-a amounted to 624 pg/mL and the IFN-g was 13 pg/mL. Under “Table 26, donor 28316”, this substance came in with an IFN-a of 4000 pg/mL and an IFN-g of 54 pg/mL. Besides, under “Table 26, mean multiplied by 4”, the “IFN-g mean ×4” value was 90 pg/mL. Under setting [1], this substance gave an IFN-a mean of 3426 pg/mL and an IFN-g mean of 22 pg/mL. Besides, the “immunomodulatory activity (IFN-γ / IFN-α secretion), in words” value (used alone (no cPLGA)) is “striking activity in the cytokine response assays”.
“(5′-TCGACGT-HEG)2-glycerol-HEG-5′-ACTTAGAGGTTCAGTAGG-3′ (SEQ ID NO: 157) (DNA, all phosphorothioate, methylation of C not given here; Two heptamer DNA arms joined by HEG spacers and glycerol branching to the chain) [Compound C-202]” yielded an IFN-α under setting [2] of 830 pg/mL; an IFN-α under setting [3] of 102 pg/mL; an IFN-α under setting [4] of 102 pg/mL; an IFN-α under setting [5] of 102 pg/mL; an IFN-α (Example 59, 4 ug/ml, donor 48) of 2250 pg/mL; an IFN-α (Example 59, 4 ug/ml, donor 177) of 2482 pg/mL. In addition, the IFN-α came to 1222 pg/mL (Example 59, 4 ug/ml, donor 272); 215 pg/mL (Example 59, 4 ug/ml, donor 273); 1901 pg/mL (Example 59, 20 ug/ml, donor 48); 2742 pg/mL under setting [8]; 612 pg/mL under setting [9]; 339 pg/mL under setting [10]. For the same substance, the IFN-α mean is, setting by setting: under setting [6], 284 pg/mL; under setting [7], 1542 pg/mL; under setting [11], 1399 pg/mL.
On to “(5′-TCGACGT-HEG)2-glycerol-HEG-5′-CCTACTGAACCTCTAAGT-3′ (SEQ ID NO: 158) (DNA, all phosphorothioate, methylation of C not given here; Two heptamer DNA arms joined by HEG spacers and glycerol branching to the chain) [Compound C-203]”, for which the IFN-α runs as follows: under setting [2], 102 pg/mL; under setting [3], 102 pg/mL; under setting [4], 102 pg/mL; under setting [5], 102 pg/mL; (Example 59, 4 ug/ml, donor 48) 691 pg/mL; (Example 59, 4 ug/ml, donor 177) 487 pg/mL. Besides, the IFN-α reads like this: (Example 59, 4 ug/ml, donor 272) 102 pg/mL; (Example 59, 4 ug/ml, donor 273) 102 pg/mL; (Example 59, 20 ug/ml, donor 48) 735 pg/mL; under setting [8], 681 pg/mL; under setting [9], 102 pg/mL; under setting [10], 102 pg/mL. Also, the IFN-α mean reads like this: under setting [6], 102 pg/mL; under setting [7], 346 pg/mL; under setting [11], 405 pg/mL.
As to “(5′-TCGACGT-HEG)2-glycerol-HEG-5′-TTGGCCAAGCTTGGCCAA (SEQ ID NO: 116) (DNA, all phosphorothioate, methylation of C not given here; Two heptamer DNA arms joined by HEG spacers and glycerol branching to the chain) [Compound C-178]”, the IFN-α is, setting by setting: under setting [2], 336 pg/mL; under setting [3], 1150 pg/mL; under setting [4], 149 pg/mL; under setting [5], 102 pg/mL; (Example 59, 4 ug/ml, donor 48) 16300 pg/mL; (Example 59, 4 ug/ml, donor 177) 8304 pg/mL. Besides, the IFN-α is, setting by setting: (Example 59, 4 ug/ml, donor 272) 1677 pg/mL; (Example 59, 4 ug/ml, donor 273) 1732 pg/mL; (Example 59, 20 ug/ml, donor 48) 13946 pg/mL; under setting [8], 19973 pg/mL; under setting [9], 15050 pg/mL; under setting [10], 3971 pg/mL. The IFN-α mean under setting [6] stood at 434 pg/mL, the IFN-α mean under setting [7] stood at 7003 pg/mL and the IFN-α mean under setting [11] is 13235 pg/mL.
For the substance “(5′-TCGTCGA-3′)2-glycerol-5′-AACGTTC-3′ [Compound C-27]”, the “IFN-γ (pg/ml) 28065” value (donor 28065 (high background), 20 ug/ml, 24 h, + PLGA = premixed with 100 μg/ml cPLGA, 1000 = outside assay limits) stood at 475 pg/mL. The “IFN-α (pg/ml) 28065” value (donor 28065, 20 ug/ml, 24 h, + PLGA = premixed with 100 μg/ml cPLGA) was 3 pg/mL. For the same substance, under setting [12], the “IFN-α (pg/ml) 28066” value was 0 pg/mL and the “IFN-γ (pg/ml) 28066” value stood at 3 pg/mL. For the same substance, under setting [13], the “IFN-α (pg/ml) 28067” value amounted to 24 pg/mL and the “IFN-γ (pg/ml) 28067” value was 24 pg/mL. For the same substance, under setting [14], the “IFN-α (pg/ml) 28068” value stood at 16 pg/mL and the “IFN-γ (pg/ml) 28068” value turned out to be 226 pg/mL. For the setting “donor 28185, Table 15”, the “IFN-a” value was found to be 4 pg/mL and the “IFN-g” value worked out at 49 pg/mL. Where the note is “donor 28186, Table 15”, the “IFN-a” value turned out to be 4 pg/mL and the “IFN-g” value stood at 3 pg/mL. For the setting “donor 28187, Table 15”, the “IFN-a” value turned out to be 39 pg/mL and the “IFN-g” value was 21 pg/mL. Also, under “donor 28188, Table 15”, the “IFN-a” value turned out to be 4 pg/mL and the “IFN-g” value stood at 3 pg/mL. Moreover, under setting [15], the “IFN-α (pg/ml) mean” value is 11 pg/mL and the “IFN-γ (pg/ml) mean” value is 182 pg/mL. For the setting “Table 15”, the “IFN-a (pg/ml) mean” value was found to be 13 pg/mL, the “IFN-g (pg/ml) mean” value amounted to 19 pg/mL, the “IFN-a (pg/ml) ×2” value was determined as 25 pg/mL and the “IFN-g (pg/ml) ×4” value amounted to 75 pg/mL.
Consider “(5′-TCGTCGA-3′-HEG)2-glycerol-HEG-5′-AACGTTC-3′ [Compound C-96]”, for which the “IFN-α induction, in words” value is given as “induced more IFN-α relative to linear CICs with HEG spacers”. For the setting “Table 24, donor 28234”, this substance gave an IFN-α of 16 pg/mL and an IFN-γ of 21 pg/mL. Where the note is “Table 24, donor 28235”, this substance returned an IFN-α of 120 pg/mL and an IFN-γ of 239 pg/mL. Under “Table 24, donor 28236”, this substance had an IFN-α of 608 pg/mL and an IFN-γ of 354 pg/mL. Under “Table 24, donor 28237”, the IFN-α is 993 pg/mL and the IFN-γ was 1396 pg/mL. Under setting [16], this substance had an IFN-α mean of 434 pg/mL and an IFN-γ mean of 503 pg/mL. Also, under “donor 28185, Table 15”, the “IFN-a” value was 2550 pg/mL and the “IFN-g” value was determined as 163 pg/mL. Also, where the note is “donor 28186, Table 15”, the “IFN-a” value was determined as 446 pg/mL and the “IFN-g” value was 22 pg/mL. Under “donor 28187, Table 15”, the “IFN-a” value came out at 118 pg/mL and the “IFN-g” value worked out at 195 pg/mL. Moreover, under “donor 28188, Table 15”, the “IFN-a” value was 40 pg/mL and the “IFN-g” value was determined as 12 pg/mL. In addition, under “Table 15”, the “IFN-a (pg/ml) mean” value is 788 pg/mL, the “IFN-g (pg/ml) mean” value was 98 pg/mL, the “IFN-a (pg/ml) ×2” value was found to be 1577 pg/mL and the “IFN-g (pg/ml) ×4” value turned out to be 392 pg/mL.
